Like-named read-outs stand apart in the source and are kept apart here.
Legend:
Type in all cases: in vivo
wheat = assay: Post-emergence herbicidal activity against cereal crops (wheat) +/- safener, crop selectivity; details: 100%=total damage to plant, 0%=no damage; for Post-emergence herbicidal activity against wheat (percentage phytotoxicity), +CQC: 250 g/ha, plus safener cloquintocet-mexyl (CQC) applied at 50 g/ha; for percent phytotoxicity (crop damage) to wheat at 250 g/ha: Triticum aestivum, 360 h, without safener, read-out: Post-emergence herbicidal activity against wheat (percentage phytotoxicity), Wheat - CQC
Summary of the method: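 Test plants raised in pots in a glasshouse (24/18 °C warm or 20/16 °C cool species day/night, 16 h light, 65% humidity) and treated post-emergence about 12 days after sowing. Visual percentage phytotoxicity scored 15 days after application (0% = no damage, 100% = total damage).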

Lolium perenne (LOLPE) = assay: Glasshouse assay for herbicidal activity, pre-/post-emergence (percentage phytotoxicity); details: Lolium perenne, Rate 250 g/ha, 100%=total damage, 0%=no damage
Summary of the method: (§1)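 Seeds sown in standard soil in pots, grown 1 day (pre-emergence) or ~12 days (post-emergence) before treatment. Glasshouse: warm species 24/18 °C, cool species 20/16 °C day/night, 16 h light, 65% humidity, watered twice daily. Visual phytotoxicity scored 15DAA (post) or 20DAA (pre); 0% none, 100% total damage.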

Avena fatua (AVEFA) = assay: as above; details: Avena fatua, Rate 250 g/ha, 100%=total damage, 0%=no damage
Summary of the method: as §1

[1] = test system: Alopecurus myosuroides (ALOMY); assay: as above; details: Alopecurus myosuroides, Rate 250 g/ha, 100%=total damage, 0%=no damage
Summary of the method: as §1

[2] = test system: Echinochloa crus-galli (ECHCG); assay: as above; details: Echinochloa crus-galli, Rate 250 g/ha, 100%=total damage, 0%=no damage
Summary of the method: as §1

[3] = post-emergence, 360 h, post-emergence, visual assessment 15 DAA, read-out: Post-emergence herbicidal activity (percentage phytotoxicity), LOLPE POST
[4] = pre-emergence, 480 h, pre-emergence, visual assessment 20 DAA, read-out: Pre-emergence herbicidal activity (percentage phytotoxicity), LOLPE PRE
[5] = post-emergence, 360 h, post-emergence, visual assessment 15 DAA, read-out: Post-emergence herbicidal activity (percentage phytotoxicity), AVEFA POST
[6] = pre-emergence, 480 h, pre-emergence, visual assessment 20 DAA, read-out: Pre-emergence herbicidal activity (percentage phytotoxicity), AVEFA PRE
[7] = 360 h, post-emergence, visual assessment 15 DAA, read-out: Post-emergence herbicidal activity (percentage phytotoxicity), ALOMY POST
[8] = 480 h, pre-emergence, visual assessment 20 DAA, read-out: Pre-emergence herbicidal activity (percentage phytotoxicity), ALOMY PRE
[9] = post-emergence, 360 h, post-emergence, visual assessment 15 DAA, read-out: Post-emergence herbicidal activity (percentage phytotoxicity), ECHCG POST
[10] = pre-emergence, 480 h, pre-emergence, visual assessment 20 DAA, read-out: Pre-emergence herbicidal activity (percentage phytotoxicity), ECHCG PRE

Structure (SMILES) | Post-emergence herbicidal activity against wheat (percentage phytotoxicity), +CQC (wheat) [%] | percent phytotoxicity (crop damage) to wheat at 250 g/ha (wheat) [%] | pest or weed control at 250 g/ha (Lolium perenne (LOLPE); [3]) [%] | pest or weed control at 250 g/ha (Lolium perenne (LOLPE); [4]) [%] | pest or weed control at 250 g/ha (Avena fatua (AVEFA); [5]) [%] | pest or weed control at 250 g/ha (Avena fatua (AVEFA); [6]) [%] | pest or weed control at 250 g/ha [1, 7] [%] | pest or weed control at 250 g/ha [1, 8] [%] | pest or weed control at 250 g/ha [2, 9] [%] | pest or weed control at 250 g/ha [2, 10] [%]
Cc1cc(C)c(C2C(=O)CC(CCNC(=O)NC(=O)c3ccc(C(F)(F)F)cc3)C2=O)c(C)c1 (stereo not drawn) [Compound A72] | 70 | 80 | 80 | 10 | 90 | 20 | 30 | 20 | 80 | 0
Cc1cc(C)c(C2C(=O)CC(CCNS(=O)(=O)c3ccc(F)cc3)C2=O)c(C)c1 (stereo not drawn) [Compound A73] | 10 | 0 | 60 | 70 | 60 | 0 | 40 | 70 | 30 | 30
Cc1cc(C)c(C2C(=O)CC(CCNS(=O)(=O)c3ccc(C(F)(F)F)cc3)C2=O)c(C)c1 (stereo not drawn) [Compound A74] | 0 | 10 | 60 | 70 |  | 90 | 50 | 70 | 60 | 70
Cc1cc(C)c(C2C(=O)CC(CCNS(=O)(=O)c3ccc(F)c(Cl)c3)C2=O)c(C)c1 (stereo not drawn) [Compound A75] | 0 | 0 | 70 | 80 | 80 | 60 | 60 | 70 | 30 | 70
Cc1cc(C)c(C2C(=O)CC(CCNS(=O)(=O)c3ccccc3F)C2=O)c(C)c1 (stereo not drawn) [Compound A76] | 0 | 0 | 60 | 70 | 20 | 0 | 20 | 30 | 40 | 40
Cc1cc(C)c(C2C(=O)CC(CCNS(=O)(=O)C(C)C)C2=O)c(C)c1 (stereo not drawn) [Compound A77] | 10 | 80 | 80 | 80 | 80 | 70 | 80 | 100 | 70 | 70
Cc1cc(C)c(C2C(=O)CC(CCNS(=O)(=O)c3ccc(Cl)c(Cl)c3)C2=O)c(C)c1 (stereo not drawn) [Compound A78] | 0 | 0 | 60 | 70 | 80 | 0 | 40 | 60 | 30 | 20
COc1ccc(S(=O)(=O)NCCC2CC(=O)C(c3c(C)cc(C)cc3C)C2=O)cc1 (stereo not drawn) [Compound A79] | 0 | 30 | 60 | 70 | 60 | 10 | 30 | 30 | 40 | 50
Cc1cc(C)c(C2C(=O)CC(CCNS(=O)(=O)c3ccccc3Cl)C2=O)c(C)c1 (stereo not drawn) [Compound A80] | 0 | 0 | 60 | 60 | 0 | 0 | 10 | 10 | 0 | 40
Cc1cc(C)c(C2C(=O)CC(CCNS(=O)(=O)c3ccc(Cl)cc3)C2=O)c(C)c1 (stereo not drawn) [Compound A81] | 0 | 0 | 60 | 70 | 70 | 70 | 60 | 60 | 60 | 70
Cc1cc(C)c(C2C(=O)CC(CCNS(=O)(=O)c3cccs3)C2=O)c(C)c1 (stereo not drawn) [Compound A82] | 0 | 0 | 50 | 70 | 30 | 0 | 40 | 70 | 20 | 30
CCS(=O)(=O)NCCC1CC(=O)C(c2c(C)cc(C)cc2C)C1=O (stereo not drawn) [Compound A83] | 10 | 80 | 70 | 90 | 80 | 80 | 80 | 90 | 70 | 70
Cc1cc(C)c(C2C(=O)CC(CCNS(=O)(=O)c3ccc(Cl)cc3Cl)C2=O)c(C)c1 (stereo not drawn) [Compound A84] | 0 | 0 | 70 | 50 | 80 | 10 | 30 | 50 | 50 | 30
Cc1cc(C)c(C2C(=O)CC(CCNS(=O)(=O)c3ccc(OC(F)(F)F)cc3)C2=O)c(C)c1 (stereo not drawn) [Compound A85] | 10 | 20 | 50 | 80 | 80 | 80 | 60 | 70 | 40 | 70
Cc1cc(C)c(C2C(=O)CC(CCNS(=O)(=O)c3ccccc3C(F)(F)F)C2=O)c(C)c1 (stereo not drawn) [Compound A86] | 0 | 20 | 30 | 60 | 0 | 20 | 50 | 20 | 30 | 60
Cc1cc(C)c(C2C(=O)CC(CCNS(=O)(=O)c3ccccc3C)C2=O)c(C)c1 (stereo not drawn) [Compound A87] | 0 | 20 | 0 | 70 | 50 | 0 | 0 | 0 | 0 | 30

Source: patent publication US10301295B2, “Herbicidal compounds” (Syngenta Participations AG, priority 2014, dated 2019)
